Source: publication PMC10342533, “Novel Tetrazole Derivatives Targeting Tubulin Endowed with Antiproliferative Activity against Glioblastoma Cells” (International Journal of Molecular Sciences, 2023)

Key:
[1] = test system: HeLa cells; assay: Cell cycle analysis by flow cytometry (PI), HeLa; type: cell-based, human; settings: 100 nM
Method: To assess how tubulin polymerization inhibition and the effects on the microtubule network affect the cell cycle, flow cytometry experiments were performed on HeLa, MCF7, and U87 MG cells 24, 48, and 72 h after treatments with compounds 10, 12, and 14 at 100 nM using propidium iodide (PI) for DNA staining and untreated cells as the negative control.
HeLa, MCF7, or U87 MG cells were seeded in 6-well plates (8·10^4 cells/mL, 2 mL/well) and incubated in complete DMEM Medium (see above) at 37 °C and 5% CO2 atmosphere for 24 h. Then, the cells were treated with selected compounds (10, 12, or 14) at 100 nM, and untreated cells were used as negative controls. Cells were collected 24, 48, or 72 h following treatment and fixed overnight in ethanol/PBS (7:3) at 4 °C. After two washes with PBS, cells were suspended in PBS and incubated in darkness overnight with 0.2 mg/mL RNase A (Sigma-Aldrich, St. Louis, MO, USA), 50 µg/mL propidium iodide (Sigma-Aldrich, St. Louis, MO, USA), and Triton 10x at room temperature. A BD Accuri™ C6 Plus Flow Cytometer (BD Biosciences, Franklin Lakes, NJ, USA) cytometer was used to analyze the samples, and BD Accuri™ C6 Software (version 1.0.264.21) was used for data analysis.

[2] = test system: HEK-293 (embryonic kidney); assay: Cell growth inhibition, MTT assay, non-tumor HEK-293; type: cell-based; settings: Homo sapiens, HEK293, 72 h, non-tumorigenic cell line
Method: The ability of the synthesized compounds to inhibit the cell proliferation of human cancer cell lines was assayed by measuring cell viability through the use of the MTT method 72 h after treatment. For this purpose, representative cell lines of the most frequent kinds of cancer were selected, including the following: HeLa (cervix epithelioid carcinoma), MCF7 (breast adenocarcinoma), U87 MG (glioblastoma), T98G (temozolomide resistant glioblastoma), HepG2 (hepatocellular carcinoma), HCT8 (colorectal carcinoma), and HT-29 (colon adenocarcinoma). […] The compounds were also tested against the non-tumor HEK-293 cells to study their selectivity toward cancer cells. […] The cell lines were obtained from ATTC (Manassas, VA, USA). […] The cells were periodically tested for Mycoplasma infection by using a MycoAlert kit (Lonza, Norwest, Australia), and only Mycoplasma-free cells were used in the experiments. […] Louis, MO, USA), which was dissolved in PBS at 5 mg/mL in accordance with the manufacturer's instructions. […] Untreated cells were used as negative controls. The antiproliferative activity of compounds was measured 72 h after drug exposure through the MTT assay. […] For this purpose, compounds were used at different concentrations, ranging from 10^-10 to 10^-2 M. Measurements were performed in triplicate, and each experiment was repeated three times. The IC50 values were determined using Origin software (version 9.6, OriginLab, Washington, DC, USA).

[3] = test system: HeLa cells; assay: Apoptotic cell death quantification, Annexin V-FITC/PI, HeLa; type: cell-based, human; settings: 72 h, 100 nM
Method: To characterize the cell death mechanism induced by the representative compounds 10, 12, or 14 at 100 nM on HeLa, MCF7, and U87 MG cells, dual-channel flow cytometry studies were carried out for cells in the absence (negative control) or presence of compounds 72 h after treatment. Fluorescein isothiocyanate-labeled Annexin V (FITC-AnV) and propidium iodide (PI) were used for double staining. Regarding their response to AnV and PI, cells can be identified as viable (PI−, AnV−), early apoptotic (PI−, AnV+), late apoptotic or secondary necrotic (PI+, AnV+), or necrotic (PI+, AnV−). The translocation of the phosphatidylserine from the inner to the outer cell membrane causes the response of apoptotic cells to AnV, whereas only cells suffering some kind of membrane disintegration (late apoptotic or necrotic cells) allow PI permeation.
Following the manufacturer’s guidelines, an Annexin V-FITC/PI apoptosis detection kit (Immunostep, Salamanca, Spain) was used to quantify HeLa, MCF7, or U87 MG cells. Cells were seeded in 12-well plates (5·10^4 cells/mL, 1 mL/well) and incubated in complete DMEM medium (see above) at 37 °C and 5% CO2 atmosphere for 24 h. Then, the cells were treated with selected compounds (10, 12, or 14) at 100 nM, and untreated cells were used as negative controls. Then, 72 h after incubation, the cells were harvested, centrifugated, resuspended in the Annexin V binding buffer, and incubated in darkness with Annexin V-FITC/PI for 15 min at room temperature. The samples were analyzed by using a BD Accuri™ C6 Plus Flow Cytometer (BD Biosciences), and acquired data were analyzed via BD Accuri™ C6 Software (version 1.0.264.21).

[4] = test system: U87 MG (glioblastoma); assay: Cell growth inhibition, MTT assay, U87 MG; type: cell-based; settings: Homo sapiens, U-87 MG
Method: (§1) The ability of the synthesized compounds to inhibit the cell proliferation of human cancer cell lines was assayed by measuring cell viability through the use of the MTT method 72 h after treatment. For this purpose, representative cell lines of the most frequent kinds of cancer were selected, including the following: HeLa (cervix epithelioid carcinoma), MCF7 (breast adenocarcinoma), U87 MG (glioblastoma), T98G (temozolomide resistant glioblastoma), HepG2 (hepatocellular carcinoma), HCT8 (colorectal carcinoma), and HT-29 (colon adenocarcinoma).
(§2) The cell lines were obtained from ATTC (Manassas, VA, USA). […] The cells were periodically tested for Mycoplasma infection by using a MycoAlert kit (Lonza, Norwest, Australia), and only Mycoplasma-free cells were used in the experiments.
(§3) Then, every compound was added (10 µL/well) to a final concentration of 10 µM. Untreated cells were used as negative controls. The antiproliferative activity of compounds was measured 72 h after drug exposure through the MTT assay. […] For this purpose, compounds were used at different concentrations, ranging from 10^−10 to 10^−2 M. Measurements were performed in triplicate, and each experiment was repeated three times. The IC50 values were determined using Origin software (version 9.6, OriginLab, Washington, DC, USA).

[5] = test system: MCF7 (breast adenocarcinoma); assay: Cell growth inhibition, MTT assay, MCF7; type: cell-based; settings: Homo sapiens
Method: as §1, §2, §3

[6] = test system: T98G (temozolomide resistant glioblastoma); assay: Cell growth inhibition, MTT assay, T98G; type: cell-based; settings: Homo sapiens
Method: as §1, §2, §3

SMILES | G0/G1 population ([1]; 24 h) [% Cells] | G2/M population ([1]; 24 h) [% Cells] | S population ([1]; 24 h) [% Cells] | SubG0/G1 population ([1]; 24 h) [% Cells] | G0/G1 population ([1]; 48 h) [% Cells] | G2/M population ([1]; 48 h) [% Cells] | S population ([1]; 48 h) [% Cells] | SubG0/G1 population ([1]; 48 h) [% Cells] | G0/G1 population ([1]; 72 h) [% Cells] | G2/M population ([1]; 72 h) [% Cells] | S population ([1]; 72 h) [% Cells] | SubG0/G1 population ([1]; 72 h) [% Cells] | IC50 [2] [nM] | apoptosis (early and late apoptotic death) [3] [%] | IC50 ([4]; 72 h after drug exposure) [nM] | IC50 ([5]; 72 h after drug exposure) [nM] | IC50 ([5]; mean ± SD, Table S1) [nM] | IC50 ([6]; 72 h, 72 h after drug exposure) [nM] | IC50 ([4]; mean ± SD, Table S1) [nM] | IC50 ([6]; mean ± SD, Table S1) [nM]
CSc1cc(-c2nnnn2-c2ccc3c(c2)c(C=O)cn3C)cc(Cl)n1 [Compound 14, 5-(5-(2-chloro-6-(methylsulfanyl)pyridin-4-yl)-1H-tetrazol-1-yl)-1-methyl-1H-indole-3-carbaldehyde] | 16.6 | 47.0 | 3.7 | 32.7 | 17.1 | 34.1 | 7.0 | 41.3 | 9.6 | 25.4 | 8.1 | 57.4 | 2270 | 80 | 12 | 26 | 26.2 ± 0.1 | 19 | – | –
CSc1cc(-c2nnnn2-c2ccc3c(ccn3C)c2)cc(Cl)n1 [Compound 10, 5-(5-(2-chloro-6-(methylsulfanyl)pyridin-4-yl)-1H-tetrazol-1-yl)-1-methyl-1H-indole] | 18.1 | 59.5 | 3.9 | 18.6 | 16.7 | 45.9 | 7.6 | 29.1 | 14.4 | 35.2 | 4.9 | 45.6 | 4390 | ~73 | 22 | 38 | 38.4 ± 0.4 | 25 | 22.2 ± 0.1 | –
Cn1cc(C=O)c2cc(-n3nnnc3-c3cc(Cl)nc(Cl)c3)ccc21 [Compound 12, 5-(5-(2,6-dichloropyridin-4-yl)-1H-tetrazol-1-yl)-1-methyl-1H-indole-3-carbaldehyde] | 20.0 | 57.8 | 4.6 | 17.8 | 18.2 | 40.8 | 7.8 | 32.5 | 15.3 | 34.0 | 5.6 | 45.4 | 3080 | ~73 | 17 | 37 | 37.3 ± 0.2 | 26 | 17.1 ± 0.1 | 26.2 ± 0.2
